Data reported in patent US12570694B2, “Peptides and pharmaceutical, nutraceutical or veterinary compositions for hair loss prevention and/or treatment” (VYTRUS BIOTECH, S.L., priority 2016, dated 2026).
Non-standard residues stand in square brackets, D forms with d. sY = N[C@@H](Cc1ccc(OS(=O)(=O)O)cc1)C(=O)O

What was measured:
Format in all cases: cell-based
[1] = tested on: human dermal fibroblasts (HDF); assay: Wound healing (scratch) assay on human dermal fibroblasts; conditions: FIG. 17; 5 μg/ml and 0.05 μg/ml; 5 days of treatment; triplicate mean; vs 0.1% FBS basal, 10% FBS and TGF-β1 positive controls
Protocol: In order to test the effect of the sulfaction state of the peptides on their activity, it is herewith provided as reference example a wound healing assay conducted onto human dermal fibroblasts (HDF).
Human dermal fibroblasts were seeded in a 24-well plate and were grown to confluence. A 2 mm width scratch was done on the culture monolayer. Then the test products in culture medium were added and the cicatrisation process was followed by means of phase contrast microscopy. With this aim, photographs were taken at initial of the test (T=0 h) before the scratching and after the treatment (at 12 h and at 72 h). Cicatrisation process was evaluated by quantifying wound area reduction at each time.
Data at the end of the test (5 days of treatment) are depicted in FIG. 17, wherein the wound healing potential is depicted as the Healed Area (in μm^2) for assayed peptide.
The results derive from a triplicate test. Values of cicatrised area (or % of cicatrisation) are the mean values.

[2] = tested on: human hair follicle papilla cells (HFDPC); assay: In vitro proliferation of hair follicle dermal papilla cells (BrdU incorporation); conditions: FIGS. 2 and 3; peptides with or without end-terminal modifications at 5.86, 2.93, 1.46 μg/ml; basal control = 100%
Protocol: In order to test the effects of the cell-free supernatants, as well as of the peptides of the invention, a proliferation assay was conducted onto human hair follicle papilla cells (CELL APPLICATIONS, INC; Normal human hair follicles from temporal scalp. Single donor: Ref. 602-05a. Lot. 2092.).
The culture media was a Papilla Cell Basal Medium supplemented with the Growth Supplements kit (Relative composition: Fetal bovine serum, growth factors and antibiotics. Application: 6% v/v).
HFDPC proliferation was assessed determining the proliferation index (%). Cell DNA replication was quantified by means of incorporated bromodeoxiuridine (BrdU) into DNA of treated cells. BrdU assay allows measuring cell proliferation based on cell capability of incorporating BrdU during S-phase of the cell cycle. Cells being divided incorporated BrdU that is further detected by means of antibodies and immunocytochemistry detection.
Cells were seeded at confluence in a 96-well plate. After stabilization and synchronization of cell cultures the tested products were added (at the final concentration indicated in Table 1 of Examples. After that, BrdU was added to cultures and HFDPC were incubated at 37° C. until complete BrdU incorporation. BrdU amounts were proportional to the number of cell divisions and thus to the growth of the treated culture.
Data are depicted in FIG. 1, FIG. 2 and FIG. 3, wherein it is shown the proliferation index (%) of HFDPC, calculated as the percentage of growing in relation to the basal control (non-treated HFDPC) which is accorded a 100% value of proliferation index.

[3] = tested on: human dermal fibroblasts (HDF); assay: In vitro proliferation of human dermal fibroblasts (BrdU incorporation); conditions: FIGS. 6 and 7; 4Aa at 25, 12.5, 1.25 μg/ml, 5Aa at 1.25, 0.63, 0.25 μg/ml; basal control = 100%
Protocol: In order to further test the effects of the peptides of the invention in an additional setting, a proliferation assay was conducted onto human dermal fibroblasts (HDF).
Normal Human Dermal Fibroblasts (HDF) were obtained from foreskin samples, surpluses from surgery of young donors (0-3 years old) and stablished by using the standard method of explants growth and enzymic dissociation of proliferating cells. Cells were propagated and grown in Growth Medium (GM): Dulbecco's 1 g/L glucose medium, supplemented with 10% foetal bovine serum (FBS, PAA); 2 mM L-glutamine (Lonza); and antibiotics (100 μg/ml Penicillin and 100 U/ml of Streptomycin, Lonza). For routine subcultivation and propagation of the primary culture, cells were washed twice with PBS ([…] buffered saline, pH 7.4), harvested with trypsin—EDTA (Gibco) and counted in Neubauer chamber before its seeding in a new cell culture flask (Falcon, 75 cm2).
Test products were prepared at the defined final concentrations by its dilution in Maintenance Medium (Dulbecco's 1 g/L glucose medium, supplemented with 1% foetal bovine serum (FBS, PAA); 2 mM L-glutamine (Lonza); and antibiotics (100 μg/ml Penicillin and 100 U/ml of Streptomycin, Lonza), just before each application.
HFD proliferation was assessed determining the proliferation index (%). Cell DNA replication was quantified by means of incorporated bromodeoxiuridine (BrdU) into DNA of treated cells. […] Cells being divided incorporated BrdU that is further detected by means of antibodies and immunocytochemistry detection. […]
Data are depicted in FIG. 6 and FIG. 7, wherein it is shown the proliferation index (%) of HDF, calculated as the percentage of growing in relation to the basal control (non-treated HDF) which is accorded a 100% value of proliferation index. […]
Data are depicted in FIG. 16, wherein it is shown the proliferation index (%) of HDF, calculated as the percentage of growing in relation to the basal control (non-treated HDF) which is accorded a 100% value of proliferation index.

CH3—C(O)—YIXaa2T-NH2 (Ac-YI[sY]T-NH2; SMILES CC[C@H](C)[C@H](NC(=O)[C@H](Cc1ccc(O)cc1)NC(C)=O)C(=O)N[C@@H](Cc1ccc(OS(=O)(=O)O)cc1)C(=O)N[C@H](C(N)=O)[C@@H](C)O) [SEQ ID NO: 3, Xaa2 is a tyrosine residue with the side-chain hydroxyl group replaced by a radical —OSO3H]
wound healing potential, Healed Area [1]: have the same activity as the 4Aa non-sulfated peptide

CH3—C(O)—Xaa1IYT-NH2 (Ac-[sY]IYT-NH2; SMILES CC[C@H](C)[C@H](NC(=O)[C@H](Cc1ccc(OS(=O)(=O)O)cc1)NC(C)=O)C(=O)N[C@@H](Cc1ccc(O)cc1)C(=O)N[C@H](C(N)=O)[C@@H](C)O) [SEQ ID NO: 2, Xaa1 is a tyrosine residue with the side-chain hydroxyl group replaced by a radical —OSO3H]
wound healing potential, Healed Area [1]: have the same activity as the 4Aa non-sulfated peptide

CH3—C(O)—YIYTQ-NH2 (Ac-YIYTQ-NH2) [SEQ ID NO: 7]
proliferation index of HFDPC [2]: can promote cell proliferation | proliferation index of HDF [3]: can promote cell proliferation of HDF
